In patent US4374284A, “Antiulcer, antiinflammatory, and antiallergic agent comprising as the main ingredient olean-12-ene-3β, 30-diol which is devoid of side effects of glycyrrhetinic acid and a new process for preparation of olean-12-ene-3β, 30-diol” (Minophagen Pharmaceutical Company, priority 1980, dated 1983):

Tests used:
[1] = target: T1, Δ^4 -5α-reductase for aldosterone in rat liver (Rattus norvegicus, UniProt P24008); test: inhibitory action on Δ^4-5α-reductase for aldosterone; type: biochemical; conditions: for inhibition at 0.173 µM: pH 7.2, read-out: 5α-reductase (inhibition %)
T1 construct: The pellet was appropriately diluted with a solution of 0.25 M sucrose-1 mM EDTA to use as a 5α-reductase solution; from tissue; host or cells: rat liver, 105,000 g pellet
T1 sequence (P24008 1-259): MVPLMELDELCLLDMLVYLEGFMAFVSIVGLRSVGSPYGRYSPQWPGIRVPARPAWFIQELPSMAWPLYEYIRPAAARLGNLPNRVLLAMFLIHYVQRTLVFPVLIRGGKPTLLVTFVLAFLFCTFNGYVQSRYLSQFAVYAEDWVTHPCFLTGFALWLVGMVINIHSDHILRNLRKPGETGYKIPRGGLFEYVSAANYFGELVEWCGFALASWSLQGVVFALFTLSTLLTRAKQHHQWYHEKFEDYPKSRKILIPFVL
Protocol: (§1) In vitro experimental results regarding effects of glycyrrhetinic acid (II) and its modified compounds (III), (IV), and (I) on Δ^4 -5α and 5β-reductase for aldosterone in rat liver will be shown below.
(§2) Assay for activity of Δ^4 -5α and 5β-reductase
(§3) (1) Preparation of enzyme solutions
(§4) Rat livers were perfused with saline and excised to prepare a 25% or 50% homogenate with a solution of 0.25 M sucrose and 1 mM EDTA. The homogenate was spun at 10,000 g for 20 minutes to separate supernatant, which was centrifuged again at 105,000 g to obtain Δ^4 -5β-reductase as the supernatant. The pellet was appropriately diluted with a solution of 0.25 M sucrose-1 mM EDTA to use as a 5α-reductase solution.
(§5) (2) Conditions for incubation and assay
(§6) 1 Aldosterone . . . 0.173 μM/0.05 ml ethanol solution
(§7) 2 Glycyrrhetinic acid or its modified compounds . . . 0.173 μM/0.05 ml ethanol solution Control . . . 0.05 ml ethanol solution
(§8) 5α-reductase solution 0.1 ml
(§9) 5β-reductase solution 0.1 ml or 0.2 ml
(§10) 5 Phosphate buffer (0.1 M, pH 7.2) 1 ml
(§11) The components 1 , 2 , 3 , 4 , 5 , and 6 mentioned above were mixed to bring the total volume up to 2.5 ml. The mixture was incubated at 37° C. for 20 minutes. Before the incubation, however, 1 ml aliquot was removed from 2.5 ml of the mixture mentioned above and extracted with 5 ml of methylene dichloride. After the incubation, the remaining 1.5 ml was extracted with 5 ml of methylene dichloride. The optical density of the two methylene dichloride solutions prepared before and after the incubation was measured by a spectrophotometer (Hitachi) at 240 mμ. Inhibition % of Δ^4 -5α and 5β-reductase activity was calculated from the difference in the optical density.

[2] = target: T2, Δ^4 -5β-reductase for aldosterone in rat liver (Rattus norvegicus, UniProt P31210); test: inhibitory action on Δ^4-5β-reductase for aldosterone; type: biochemical
T2 construct: centrifuged again at 105,000 g to obtain Δ^4 -5β-reductase as the supernatant; from tissue; host or cells: rat liver, 105,000 g supernatant (cytosol)
T2 sequence (P31210 1-326): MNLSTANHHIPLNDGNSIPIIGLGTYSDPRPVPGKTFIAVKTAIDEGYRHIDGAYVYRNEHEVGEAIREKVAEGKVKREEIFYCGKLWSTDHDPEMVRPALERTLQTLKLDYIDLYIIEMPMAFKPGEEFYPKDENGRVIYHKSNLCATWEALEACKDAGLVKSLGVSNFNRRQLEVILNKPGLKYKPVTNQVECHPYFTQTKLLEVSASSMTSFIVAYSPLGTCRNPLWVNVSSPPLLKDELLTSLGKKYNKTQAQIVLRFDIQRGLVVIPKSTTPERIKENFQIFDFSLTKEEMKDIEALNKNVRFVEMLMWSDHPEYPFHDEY
Protocol: as §1, §2, §3, §4, §5, §6, §7, §8, §9, §10, §11

[3] = tested on: stress-induced ulcer; test: mice experiments on stress-induced ulcer (restraint plus water immersion); type: in vivo, male ddY mice; conditions: for inhibitory effect on stress-induced ulcer (in words): 200 mg/kg
Protocol: (a) Mice Experiments on stress-induced ulcer Experimental procedures:
Male ddY mice weighing about 20 g were made to fast for 18 hours. Water was given freely. Compounds to be tested were suspended in Tween 80 to prepare an aqueous suspension and administered orally. Immediately thereafter, the mice were subjected to restraint plus water immersion stress (25° C.) for 6 hours. Thereafter, the stomach was excised and fixed by formalin. The degree of ulcer was shown as a total of the length. The control group was given only the solvent.

[4] = tested on: aspirin-induced ulcer; test: rat experiment on aspirin-induced ulcer, pylorus ligated (experiment a); type: in vivo, male Wister rats; conditions: rat, in vivo
Protocol: (b) Rat experiment on aspirin-induced ulcer
(a) Experimental procedures:
Male Wister rats weighing about 220 g were made to fast for 24 hours. Water was given freely. The rats were laparotomized under anesthesia with ether. The stomach was drawn out and ligated at the pylorus. Immediately thereafter, 1% CMC suspension of aspirin was administered orally in a dose of 100 mg/kg/5 ml. Aqueous suspensions of compounds to be tested were prepared in the same manner as in the experiment (a) and administered intraduodenally at the same time. The wound was closed and the rats were set free. After 7 hours, the stomach was excised and ulcer was measured in the same manner as in the experiment (a).

[5] = tested on: ulcers induced by acetic acid; test: experiments with rats on ulcers induced by acetic acid (chronic gastric ulcers); type: in vivo; set-up: ulcer value (major axis × minor axis): unit not given here; conditions: for ulcer value (major axis × minor axis): p.o., 14 days
Protocol: (c) Experiments with rats on ulcers induced by acetic acid
Chronic gastric ulcers were induced by penetrating 100% acetic acid serosally into gastric wall for 60 sec. using a small cup (6 mm in diameter, 5 mm in height).
From the next day, compounds to be tested were administered orally twice a day (morning and evening) for 14 days. Autopsies were carried out 15 days after the administrations.

[6] = tested on: writhing induced by acetic acid; test: effect on writhing induced by acetic acid (analgesic action); type: in vivo, male ddY mice; conditions: for number of writhing: 200 mg/kg p.o., counted for 10 minutes, control 24.9 ± 1.6, ** p < 0.01
Protocol: (b) Effect on writhing induced by acetic acid (analgesic action)
The present compound olean-12-ene-3β, 30-diol (I) was administered orally to male ddY mice weighing 25-27 g. After 30 minutes, saline containing 0.7% acetic acid was administered intraperitoneally. The number of writhings of the mice was counted for 10 minutes from, 10 min. of the administration. Aspirin was used as the reference.

[7] = tested on: PCA reaction (type I allergy); test: PCA test (type I allergy); type: in vivo, male Wister rats; conditions: serum 1/64, 200 mg/kg intraperitoneally; control 16.4 ± 2.8
Protocol: (a) PCA--Test (type I allergy)
Male Wister rats weighing […] were shaved at the abdomen. After 24 hours, 0.05 ml of serum diluted with saline (Blood samples were diluted to 1/32 and 1/64; The blood samples were collected from rats 3 weeks after administration of pertussis vaccine and egg albumin.) was injected intradermally at the abdomen. After 48 hours, compounds to be tested were administered intraperitoneally. Two hours thereafter, 0.5 ml./100 g of a solution of antigen and pigment (a solution of 0.4% egg albumin and 0.5% Pontamine sky blue) was administered. After 45 minutes, the rats were decapitated and bled, and the diameter of the pigment-leaking site under the skin was measured to obtain the area.

[8] = tested on: aspirin-induced ulcer; test: rat experiment on aspirin-induced ulcer, oral (experiment b); type: in vivo, male Wister rats; conditions: 200 mg/kg p.o., after 5 hours; control 0
Protocol: (b) Experimental procedures:
Male Wister rats weighing 120-140 g were made to fast for 24 hours, and compounds to be tested were administered orally. After 5 hours, the rats were killed by a blow. The stomach was excised and observed for the presence of ulcer.
The size of ulcer was measured by ulcer index (ulcer length×width mm^2).

[9] = tested on: rat paw edema induced with carrageenin; test: test on rat paw edema induced with carrageenin (antiinflammatory); type: in vivo, male Wister rats; conditions: 200 mg/kg p.o., after three hours
Protocol: (a) Test on rat paw induced with carrageenin
To the plantar side of the hind paw of male Wister rats was administered subcutaneously 0.05 ml/rat of 10% saline solution of carrageenin. Edema after three hours was measured by the volume method and the rate of inhibition was assayed. Compounds were administered orally 30 minutes before administration of carrageenin. [formula]

[10] = higher dosages for a long period, clinical; cited from earlier work
[11] = summary in words, liver reductase

With `CC1(C)[C@@H](O)CC[C@]2(C)[C@H]3C(=O)C=C4[C@@H]5C[C@@](C)(C(=O)O)CC[C@]5(C)CC[C@@]4(C)[C@]3(C)CC[C@@H]12` [II, olean-12-ene-11-oxo-3β-ol-30-oic acid, reference compound] the “effect upon Δ^4 -5α-5β-reductase (in words), 5α” value [1, 11] was “strongly inhibited the activity of the reductase”, the inhibition at 0.173 µM (stock) ([2]; equimolar to aldosterone (0.173 μM), 37° C., 20 minutes, pH 7.2) was 87.7 ± 2.2% and the “effect upon Δ^4 -5α-5β-reductase (in words), 5β” value [2, 11] was “strongly inhibited the activity of the reductase”. For the same molecule, the “inhibitory effect on stress-induced ulcer (in words)” value [3] was “showed the inhibitory effect”, the “inhibitory effect on aspirin-induced ulcer, experiment (a) (in words)” value [4] was “scarcely showed the effect” and the “ulcer value (major axis × minor axis)” value ([5]; Experiment 1, 200 mg/kg (half dose twice/day), control 12.0 ± 2.3) was 10.4 ± 2.7. For the same molecule, the “ulcer value (major axis × minor axis)” value ([5]; Experiment 1, 400 mg/kg (half dose twice/day), control 12.0 ± 2.3) was 8.6 ± 2.2, the “ulcer value (major axis × minor axis)” value ([5]; Experiment 2, 200 mg/kg (half dose twice/day), control 8.9 ± 1.7) was 11.5 ± 2.2 and the “ulcer value (major axis × minor axis)” value ([5]; Experiment 2, 400 mg/kg (half dose twice/day), control 8.9 ± 1.7) was 5.8 ± 1.0. For the same molecule, the “ulcer value (major axis × minor axis)” value ([5]; Total, 200 mg/kg (half dose twice/day), control 10.4 ± 1.4) was 10.9 ± 1.7, the “ulcer value (major axis × minor axis)” value ([5]; Total, 400 mg/kg (half dose twice/day), control 10.4 ± 1.4, * p < 0.05) was 7.1 ± 1.2 and the “inhibitory effect on acetic acid ulcer (in words)” value ([5]; dose of 400 mg) was “clearly showed inhibitory effects”. For the same molecule, the number of writhing [6] was 15.2 ± 3.6, the “effect on writhing (in words)” value ([6]; increasing doses) was “significantly decrease the number of writhing” and the area [7] was 7.7 ± 6.5 mm^2.
Work on `CC1(C)[C@@H](O)CC[C@]2(C)[C@H]3C(=O)C=C4[C@@H]5C[C@@](C)(CO)CC[C@]5(C)CC[C@@]4(C)[C@]3(C)CC[C@@H]12` [IV, olean12-ene-11-oxo-3β, 30diol] yielded an inhibition at 0.173 µM [1] of 26.5 ± 5.6%.
In the case of `CC1(C)[C@@H](O)CC[C@]2(C)[C@H]3CC=C4[C@@H]5C[C@@](C)(C(=O)O)CC[C@]5(C)CC[C@@]4(C)[C@]3(C)CC[C@@H]12` [III, olean-12-ene-3β-ol-30-oic acid], the inhibition at 0.173 µM [1] is reported as -0.5 ± 6.6%, the “inhibitory effect on stress-induced ulcer (in words)” value [3] is reported as “showed the effect” and the ulcer index ([3]; 200 mg/kg p.o., 5th experiment, control 4.13 ± 0.53) is reported as 3.38 ± 0.79.
In the case of `CC(=O)Oc1ccccc1C(=O)O` [aspirin, reference compound], the “ulcer index (ulcer length×width)” value [8] is reported as 7.11 ± 1.1 mm^2, the edema % ([9]; control 71 ± 6) is reported as 17 ± 3% and the inhibition at 200 mg/kg ([9]; Rattus norvegicus, po, 3 h, edema) is reported as 76.1%. The number of writhing [6] was 0.
For `CC1(C)[C@@H](O[C@H]2O[C@H](C(=O)O)[C@@H](O)[C@H](O)[C@H]2O[C@@H]2O[C@H](C(=O)O)[C@@H](O)[C@H](O)[C@H]2O)CC[C@]2(C)[C@H]3C(=O)C=C4[C@@H]5C[C@@](C)(C(=O)O)CC[C@]5(C)CC[C@@]4(C)[C@]3(C)CC[C@@H]12` [Glycyrrhizin], the “side effect (in words)” value [10] is listed as “pseudoaldosteronism such as hypertension, hypopotassemia, and edema”.
